ChEMBL document CHEMBL1201862, “PubChem BioAssay data set” (2004)
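Each compound was tested at five concentrations against cells in 96-well plates for 48 hours. Abbreviation: GI50, concentration required for 50% inhibition of growth.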 The source made the active and inactive calls. No stated cut-off is given here; in the data, active = GI50 up to about 1.1 µM and inactive = higher.

How the values were obtained:
Test in all cases: growth of human tumour cells (NCI), 48 h
MDA-MB-231 = tested on: MDA-MB-231
Malme-3M = tested on: Malme-3M
LXFL 529 = tested on: LXFL 529
MDA-MB-435 = tested on: MDA-MB-435
MDA-N = tested on: MDA-N
NCI-H460 = tested on: NCI-H460
DMS-273 = tested on: DMS-273
HCT-15 = tested on: HCT-15
HT-29 = tested on: HT-29
OVCAR-8 = tested on: OVCAR-8
SK-MEL-28 = tested on: SK-MEL-28
COLO 205 = tested on: COLO 205
786-0 = tested on: 786-0
RXF 631 = tested on: RXF 631
SN12C = tested on: SN12C
HCT-116 = tested on: HCT-116
BT-549 = tested on: BT-549
SF-539 = tested on: SF-539
SF-268 = tested on: SF-268
A498 = tested on: A498
A549 = tested on: A549
NCI/ADR-RES = tested on: NCI/ADR-RES
MOLT-4 = tested on: MOLT-4
HOP-92 = tested on: HOP-92
SK-MEL-2 = tested on: SK-MEL-2
NCI-H226 = tested on: NCI-H226
Hs-578T = tested on: Hs-578T
IGROV-1 = tested on: IGROV-1
KM12 = tested on: KM12
SK-OV-3 = tested on: SK-OV-3
OVCAR-3 = tested on: OVCAR-3
NCI-H23 = tested on: NCI-H23
CCRF-CEM = tested on: CCRF-CEM
SNB-78 = tested on: SNB-78
KM-20L2 = tested on: KM-20L2
DMS-114 = tested on: DMS-114
UACC-257 = tested on: UACC-257
SR = tested on: SR
U-251 = tested on: U-251
UO-31 = tested on: UO-31
PC-3 = tested on: PC-3
HOP-62 = tested on: HOP-62
HCC 2998 = tested on: HCC 2998
EKVX = tested on: EKVX
SW-620 = tested on: SW-620
SNB-19 = tested on: SNB-19
HL-60 = tested on: HL-60
M19-MEL = tested on: M19-MEL
ACHN = tested on: ACHN
LOX IMVI = tested on: LOX IMVI
SNB-75 = tested on: SNB-75
SF-295 = tested on: SF-295
K562 = tested on: K562
OVCAR-4 = tested on: OVCAR-4
MCF7 = tested on: MCF7
CAKI-1 = tested on: CAKI-1
M14 = tested on: M14
RXF 393 = tested on: RXF 393
T47D = tested on: T47D
DU-145 = tested on: DU-145
TK-10 = tested on: TK-10
DLD-1 = tested on: DLD-1
NCI-H522 = tested on: NCI-H522
SK-MEL-5 = tested on: SK-MEL-5
OVCAR-5 = tested on: OVCAR-5
UACC-62 = tested on: UACC-62
RPMI-8226 = tested on: RPMI-8226
HOP-18 = tested on: HOP-18

CC(C)(C)C1CCC2(CC1)CCN(CCCN1CCOCC1)CC2
GI50 (MDA-MB-231): > 100 µM (inactive) | GI50 (Malme-3M): 18.5 µM (inactive) | GI50 (LXFL 529): 8.36 µM (inactive) | GI50 (MDA-MB-435): 28.2 µM (inactive) | GI50 (MDA-N): 28.8 µM (inactive) | GI50 (NCI-H460): 39.7 µM (inactive) | GI50 (DMS-273): 19.3 µM (inactive) | GI50 (HCT-15): 22.3 µM | GI50 (HT-29): 6.5 µM (inactive) | GI50 (OVCAR-8): > 81.1 µM (inactive) | GI50 (SK-MEL-28): 16.9 µM (inactive) | GI50 (COLO 205): 16.3 µM (inactive) | GI50 (786-0): 20.2 µM (inactive) | GI50 (RXF 631): 14.4 µM (inactive) | GI50 (SN12C): > 86.3 µM (inactive) | GI50 (HCT-116): 27.6 µM (inactive) | GI50 (BT-549): > 100 µM (inactive) | GI50 (SF-539): 18.7 µM (inactive) | GI50 (SF-268): > 83 µM (inactive) | GI50 (A498): 34.7 µM (inactive) | GI50 (A549): > 49.9 µM (inactive) | GI50 (NCI/ADR-RES): > 100 µM (inactive) | GI50 (MOLT-4): 24.5 µM (inactive) | GI50 (HOP-92): 17.7 µM (inactive) | GI50 (SK-MEL-2): 20 µM (inactive) | GI50 (NCI-H226): > 95.7 µM (inactive) | GI50 (Hs-578T): 35 µM (inactive) | GI50 (IGROV-1): > 65 µM (inactive) | GI50 (KM12): > 56 µM (inactive) | GI50 (SK-OV-3): > 100 µM (inactive) | GI50 (OVCAR-3): > 100 µM (inactive) | GI50 (NCI-H23): 52.1 µM (inactive) | GI50 (CCRF-CEM): 25.4 µM (inactive) | GI50 (SNB-78): 38.5 µM (inactive) | GI50 (KM-20L2): 2.18 µM (inactive) | GI50 (DMS-114): 16.5 µM (inactive) | GI50 (UACC-257): 11.9 µM (inactive) | GI50 (SR): 27.1 µM (inactive) | GI50 (U-251): > 35.2 µM (inactive) | GI50 (UO-31): 48.3 µM (inactive) | GI50 (PC-3): > 100 µM (inactive) | GI50 (HOP-62): > 41.5 µM (inactive) | GI50 (HCC 2998): 16.9 µM (inactive) | GI50 (EKVX): > 96.4 µM (inactive) | GI50 (SW-620): > 42.8 µM (inactive) | GI50 (SNB-19): > 71.4 µM (inactive) | GI50 (HL-60): 13.1 µM (inactive) | GI50 (M19-MEL): 12.5 µM (inactive) | GI50 (ACHN): > 73.3 µM (inactive) | GI50 (LOX IMVI): 18.9 µM (inactive) | GI50 (SNB-75): 24.8 µM (inactive) | GI50 (SF-295): > 47.1 µM (inactive) | GI50 (K562): 8.51 µM (inactive) | GI50 (OVCAR-4): > 93.8 µM (inactive) | GI50 (MCF7): > 100 µM (inactive) | GI50 (CAKI-1): > 34.7 µM (inactive) | GI50 (M14): 12.2 µM (inactive) | GI50 (RXF 393): 27.4 µM (inactive) | GI50 (T47D): 42.9 µM (inactive) | GI50 (DU-145): > 100 µM (inactive) | GI50 (TK-10): > 100 µM (inactive) | GI50 (DLD-1): 24.4 µM (inactive) | GI50 (NCI-H522): > 51.1 µM (inactive) | GI50 (SK-MEL-5): 8.05 µM (inactive) | GI50 (OVCAR-5): > 60 µM (inactive) | GI50 (UACC-62): 8.91 µM (inactive) | GI50 (RPMI-8226): 17.5 µM (inactive)

CC1=C[C@H]2c3c([nH]c4ccccc34)C(c3c[nH]c4ccccc34)[C@H]2CC1 (some centres undefined)
GI50 (Malme-3M): 18.5 µM (inactive) | GI50 (LXFL 529): 4.29 µM (inactive) | GI50 (NCI-H460): 2.84 µM (inactive) | GI50 (HOP-18): 11.7 µM (inactive) | GI50 (DMS-273): 4.33 µM (inactive) | GI50 (HCT-15): 5.41 µM | GI50 (HT-29): 3.3 µM (inactive) | GI50 (OVCAR-8): 8.59 µM (inactive) | GI50 (SK-MEL-28): 12.1 µM (inactive) | GI50 (COLO 205): 3.41 µM (inactive) | GI50 (786-0): 3.88 µM (inactive) | GI50 (RXF 631): 3.57 µM (inactive) | GI50 (SN12C): 3.75 µM (inactive) | GI50 (HCT-116): 3.27 µM (inactive) | GI50 (SF-539): 12.9 µM (inactive) | GI50 (A498): 15.5 µM (inactive) | GI50 (A549): 10.1 µM (inactive) | GI50 (MOLT-4): 2.15 µM (inactive) | GI50 (HOP-92): 0.536 µM (active) | GI50 (NCI-H226): 11 µM (inactive) | GI50 (IGROV-1): 7.96 µM (inactive) | GI50 (SK-OV-3): 13.7 µM (inactive) | GI50 (NCI-H23): 3.33 µM (inactive) | GI50 (CCRF-CEM): 3.36 µM (inactive) | GI50 (SNB-78): 3.53 µM (inactive) | GI50 (DMS-114): 5.74 µM (inactive) | GI50 (UACC-257): 13.4 µM (inactive) | GI50 (U-251): 4.55 µM (inactive) | GI50 (UO-31): > 10 µM (inactive) | GI50 (HCC 2998): 3.48 µM (inactive) | GI50 (EKVX): 12.4 µM (inactive) | GI50 (SW-620): 6.37 µM (inactive) | GI50 (HL-60): 4.94 µM (inactive) | GI50 (M19-MEL): 10.3 µM (inactive) | GI50 (ACHN): 10.2 µM (inactive) | GI50 (LOX IMVI): 2.19 µM (inactive) | GI50 (SNB-75): 6.44 µM (inactive) | GI50 (K562): 3.75 µM (inactive) | GI50 (CAKI-1): 12.9 µM (inactive) | GI50 (M14): 6.52 µM (inactive) | GI50 (RXF 393): 1.74 µM (inactive) | GI50 (TK-10): 14.5 µM (inactive) | GI50 (DLD-1): 6.43 µM (inactive) | GI50 (NCI-H522): 5.87 µM (inactive) | GI50 (SK-MEL-5): 11.9 µM (inactive) | GI50 (UACC-62): 10.6 µM (inactive) | GI50 (RPMI-8226): 3.24 µM (inactive)
